Read-outs that look alike come from different tables or passages of the source.
Legend:
[1] = target: T1, NET (norepinephrine transporter) (Rattus norvegicus, UniProt Q63380); assay: In vitro determination of NET reuptake inhibition ([3H]Nixosetine binding, rat brain cortex)
T1 construct: Cortex from rat brain was collected and homogenised; from tissue; host or cells: rat brain cortex
Description: In Vitro Determination of NET Reuptake Inhibition
Cortex from rat brain was collected and homogenised using an Ultra-Turrax T25 and a Dual homogeniser in ice-cold homogenising buffer containing Tris, NaCl and KCl (50 mM, 120 mM and 5 mM, respectively, pH 7.4) prior to dilution to an appropriate protein concentration optimised for specific and non-specific binding. […] Membrane-bound activity was detected by filtration through a Packard Filtermate harvester onto GF/B Unifilterplates, washed with ice-cold Tris-HCl buffer, containing NaCl and KCl (50 mM, 120 mM and 4 mM; pH 7.4; 6×0.5 ml). Filters were allowed to dry for 24 h before adding scintillation fluid. Scintillation fluid was allowed to saturate filters for 24 h before counting in a Topcount scintillation counter. Percentage specific bound and competition binding curves were calculated using S-Plus software (Insightful).

[2] = target: T2, human Dopamine D2L receptor (Homo sapiens, UniProt P14416); assay: In vitro binding affinity for human D2L receptor ([3H]Spiperone binding)
T2 construct: expressed in transfected cells; host or cells: CHO cells
Description: In Vitro Binding Affinity for Human D2L Receptor
Frozen membranes of human Dopamine D2L receptor-transfected CHO cells were thawed, briefly homogenised using an Ultra-Turrax T25 homogeniser and diluted in Tris-HCl assay buffer containing NaCl, CaCl2, MgCl2, KCl (50, 120, 2, 1, and 5 mM respectively, adjusted to pH 7.7 with HCl) to an appropriate protein concentration optimised for specific and non-specific binding. Radioligand [^3H]Spiperone (NEN, specific activity ˜70 Ci/mmol) was diluted in assay buffer at a concentration of 2 nmol/L. Prepared radioligand (50 μl), along with 50 μl of either the 10% DMSO control, Butaclamol (10^−6 mol/l final concentration), or compound of interest, was then incubated (30 min, 37° C.) with 400 μl of the prepared membrane solution. Membrane-bound activity was filtered through a Packard Filtermate harvester onto GF/B Unifilterplates and washed with ice-cold Tris-HCl buffer (50 mM; pH 7.7; 6×0.5 ml). Filters were allowed to dry before adding scintillation fluid and counting in a Topcount scintillation counter. Percentage specific bound and competition binding curves were calculated using S-Plus software (Insightful).

[3] = target: T3, human cloned 5-HT2C receptor, expressed in CHO cells (Homo sapiens, UniProt P28335); assay: In vitro binding affinity for 5-HT2C receptor ([3H]mesulergine radioligand binding)
T3 construct: expressed in transfected cells; host or cells: CHO cells
T3 sequence (P28335 33-458): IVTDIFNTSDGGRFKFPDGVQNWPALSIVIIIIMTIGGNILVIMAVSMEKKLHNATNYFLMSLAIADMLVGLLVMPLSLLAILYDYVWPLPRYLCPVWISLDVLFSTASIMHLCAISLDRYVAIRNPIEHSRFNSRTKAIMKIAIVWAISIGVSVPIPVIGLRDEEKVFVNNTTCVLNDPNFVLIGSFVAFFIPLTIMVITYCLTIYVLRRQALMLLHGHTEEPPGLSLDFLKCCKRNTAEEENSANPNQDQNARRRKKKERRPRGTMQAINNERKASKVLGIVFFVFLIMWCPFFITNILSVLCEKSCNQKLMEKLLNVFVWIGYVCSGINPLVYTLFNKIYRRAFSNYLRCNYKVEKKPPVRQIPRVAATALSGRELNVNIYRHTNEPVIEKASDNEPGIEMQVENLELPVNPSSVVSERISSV
Description: In Vitro Binding Affinity for 5-HT2A and 5-HT2C Receptors
The interaction of the compounds of Formula (I) with 5-HT2A and 5-HT2C receptors was assessed in in vitro radioligand binding experiments. […] During the incubation, the radioligands bind to the receptor. When equilibrium of binding is reached, the receptor bound radioactivity is separated from the non-bound radioactivity, and the receptor bound activity is counted. The interaction of the test compounds with the receptors is assessed in competition binding experiments. Various concentrations of the test compound are added to the incubation mixture containing the tissue preparation and the radioligand. Binding of the radioligand will be inhibited by the test compound in proportion to its binding affinity and its concentration.

[4] = rat brain cortex, read-out: NET pIC50 (converted)
[5] = human D2L receptor-transfected CHO cell membranes, read-out: D2L pIC50 (converted)
[6] = human cloned 5-HT2C receptor, read-out: 5-HT2C pIC50 (converted)

T2 sequence (P14416 whole entry): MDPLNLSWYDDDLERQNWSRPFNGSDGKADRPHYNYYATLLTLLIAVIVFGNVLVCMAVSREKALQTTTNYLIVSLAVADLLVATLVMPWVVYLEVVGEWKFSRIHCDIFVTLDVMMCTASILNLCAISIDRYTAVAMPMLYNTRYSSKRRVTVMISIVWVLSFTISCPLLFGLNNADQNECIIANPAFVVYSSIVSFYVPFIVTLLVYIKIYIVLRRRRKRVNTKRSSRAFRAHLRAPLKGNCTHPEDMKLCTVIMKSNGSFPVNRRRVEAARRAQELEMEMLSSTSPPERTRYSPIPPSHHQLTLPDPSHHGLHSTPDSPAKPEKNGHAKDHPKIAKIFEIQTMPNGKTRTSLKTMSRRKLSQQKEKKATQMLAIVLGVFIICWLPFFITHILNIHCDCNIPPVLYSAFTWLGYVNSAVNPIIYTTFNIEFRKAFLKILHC
T1 sequence (Q63380 1-617): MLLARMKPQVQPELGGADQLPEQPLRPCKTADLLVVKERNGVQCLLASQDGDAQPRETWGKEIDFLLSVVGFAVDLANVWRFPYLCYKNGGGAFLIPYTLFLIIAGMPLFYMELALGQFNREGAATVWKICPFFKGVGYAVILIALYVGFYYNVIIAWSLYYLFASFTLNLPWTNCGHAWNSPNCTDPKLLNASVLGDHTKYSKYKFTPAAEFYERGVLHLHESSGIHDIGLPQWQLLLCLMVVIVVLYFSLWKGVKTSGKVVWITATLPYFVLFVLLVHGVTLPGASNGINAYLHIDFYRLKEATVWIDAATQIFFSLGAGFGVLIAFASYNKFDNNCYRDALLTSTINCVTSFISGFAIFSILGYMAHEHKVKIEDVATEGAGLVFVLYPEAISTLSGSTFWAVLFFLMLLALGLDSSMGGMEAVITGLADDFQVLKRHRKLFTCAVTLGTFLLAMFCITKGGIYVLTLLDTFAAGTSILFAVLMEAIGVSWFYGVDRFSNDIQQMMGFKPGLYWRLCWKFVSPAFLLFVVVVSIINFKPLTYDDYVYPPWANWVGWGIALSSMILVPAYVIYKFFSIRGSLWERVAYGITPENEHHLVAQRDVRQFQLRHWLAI

| Compound | IC50 [1, 4] | IC50 [2, 5] | IC50 [3, 6] | IC50 ([1]; NET pIC50, rat brain cortex) | IC50 ([2]; D2L pIC50, human D2L receptor-transfected CHO cell membranes) | IC50 ([3]; 5-HT2C pIC50, human cloned 5-HT2C receptor) |
| --- | --- | --- | --- | --- | --- | --- |
| O=C(NC1CCN(C[C@H]2C[C@@H]3c4ccccc4Cc4ccc(F)cc4[C@@H]3O2)CC1)OCc1ccccc1Cl [Compound 218] | 5620 nM | 10.2 nM | 5.75 nM | – | – | – |
| COc1ccc(OC(=O)NC2CCN(CC3CC4c5ccccc5Cc5ccc(F)cc5C4O3)CC2)cc1 (stereo not drawn) [Compound 219] | – | – | – | > 10000 nM | 3.39 nM | 3.98 nM |
| O=C(NC1CCN(CC2CC3c4ccccc4Cc4ccc(F)cc4C3O2)CC1)C1CC1 (stereo not drawn) [Compound 220] | 5370 nM | 4.27 nM | 2.14 nM | – | – | – |
| Cn1cccc1C(=O)NC1CCN(CC2CC3c4ccccc4Cc4ccc(F)cc4C3O2)CC1 (stereo not drawn) [Compound 221] | 7240 nM | 7.76 nM | 11 nM | – | – | – |
| Cc1onc(-c2ccccc2Cl)c1C(=O)NC1CCN(CC2CC3c4ccccc4Cc4ccc(F)cc4C3O2)CC1 (stereo not drawn) [Compound 222] | > 10000 nM | 15.1 nM | 19.5 nM | – | – | – |
| O=C(NC1CCN(CC2CC3c4ccccc4Cc4ccc(F)cc4C3O2)CC1)c1cc2ccccc2s1 (stereo not drawn) [Compound 223] | 8510 nM | 17.8 nM | 23.4 nM | – | – | – |
| CC(=O)N1CCC(C(=O)NC2CCN(CC3CC4c5ccccc5Cc5ccc(F)cc5C4O3)CC2)CC1 (stereo not drawn) [Compound 224] | > 10000 nM | 3.39 nM | 12.9 nM | – | – | – |
| Cc1cccc(C(=O)NC2CCN(CC3CC4c5ccccc5Cc5ccc(F)cc5C4O3)CC2)c1 (stereo not drawn) [Compound 225] | 5250 nM | 6.03 nM | 11.2 nM | – | – | – |
| O=C(NC1CCN(CC2CC3c4ccccc4Cc4ccc(F)cc4C3O2)CC1)c1ccccc1Br (stereo not drawn) [Compound 226] | 10500 nM | 5.37 nM | 6.61 nM | – | – | – |
| O=C(NC1CCN(CC2CC3c4ccccc4Cc4ccc(F)cc4C3O2)CC1)c1ccccc1Cl (stereo not drawn) [Compound 227] | 9120 nM | 5.25 nM | 11.2 nM | – | – | – |
| O=C(NC1CCN(CC2CC3c4ccccc4Cc4ccc(F)cc4C3O2)CC1)c1cccc(Cl)c1Cl (stereo not drawn) [Compound 228] | 7940 nM | 9.12 nM | 20.9 nM | – | – | – |
| O=C(NC1CCN(CC2CC3c4ccccc4Cc4ccc(F)cc4C3O2)CC1)c1ccc(Cl)c(Cl)c1 (stereo not drawn) [Compound 229] | > 10000 nM | 14.8 nM | 24 nM | – | – | – |
| O=C(NC1CCN(CC2CC3c4ccccc4Cc4ccc(F)cc4C3O2)CC1)c1cccc(F)c1 (stereo not drawn) [Compound 231] | 8510 nM | 1.86 nM | 10.7 nM | – | – | – |
| O=C(NC1CCN(CC2CC3c4ccccc4Cc4ccc(F)cc4C3O2)CC1)c1ccccc1F (stereo not drawn) [Compound 232] | 4070 nM | 4.79 nM | 9.77 nM | – | – | – |

The next lines start with results.

| IC50 [1, 4] | IC50 [2, 5] | IC50 [3, 6] | Compound | IC50 ([1]; NET pIC50, rat brain cortex) | IC50 ([2]; D2L pIC50, human D2L receptor-transfected CHO cell membranes) | IC50 ([3]; 5-HT2C pIC50, human cloned 5-HT2C receptor) |
| --- | --- | --- | --- | --- | --- | --- |
| 5250 nM | 14.8 nM | 30.9 nM | O=C(NC1CCN(CC2CC3c4ccccc4Cc4ccc(F)cc4C3O2)CC1)c1cccc(C(F)(F)F)c1 (stereo not drawn) [Compound 233] | – | – | – |
| 7240 nM | 8.71 nM | 21.9 nM | O=C(NC1CCN(CC2CC3c4ccccc4Cc4ccc(F)cc4C3O2)CC1)c1c(F)c(F)c(F)c(F)c1F (stereo not drawn) [Compound 234] | – | – | – |
| 9120 nM | 18.6 nM | 13.5 nM | COc1cc(C(=O)NC2CCN(CC3CC4c5ccccc5Cc5ccc(F)cc5C4O3)CC2)cc(OC)c1OC (stereo not drawn) [Compound 235] | – | – | – |
| 7940 nM | 58.9 nM | 38 nM | O=C(NC1CCN(CC2CC3c4ccccc4Cc4ccc(F)cc4C3O2)CC1)c1ccc(-c2ccccc2)cc1 (stereo not drawn) [Compound 237] | – | – | – |
| 7760 nM | 21.4 nM | 5.62 nM | O=C(Nc1ccc2c(c1)CCC2)NC1CCN(CC2CC3c4ccccc4Cc4ccc(F)cc4C3O2)CC1 (stereo not drawn) [Compound 238] | – | – | – |
| > 10000 nM | 49 nM | 22.9 nM | O=C(Cc1ccc(Cl)cc1)NC1CCN(CC2CC3c4ccccc4Cc4ccc(F)cc4C3O2)CC1 (stereo not drawn) [Compound 239] | – | – | – |
| > 10000 nM | 4.57 nM | 5.75 nM | O=C(Cc1cccs1)NC1CCN(CC2CC3c4ccccc4Cc4ccc(F)cc4C3O2)CC1 (stereo not drawn) [Compound 240] | – | – | – |
| 7760 nM | 5.5 nM | 6.46 nM | O=C(CSc1ccccc1)NC1CCN(CC2CC3c4ccccc4Cc4ccc(F)cc4C3O2)CC1 (stereo not drawn) [Compound 241] | – | – | – |
| > 10000 nM | 6.76 nM | 3.24 nM | CN(C)C(=O)NC1CCN(CC2CC3c4ccccc4Cc4ccc(F)cc4C3O2)CC1 (stereo not drawn) [Compound 243] | – | – | – |
| 8910 nM | 4.57 nM | 4.27 nM | CCCNC(=O)NC1CCN(C[C@H]2C[C@@H]3c4ccccc4Cc4ccc(F)cc4[C@@H]3O2)CC1 [Compound 244] | – | – | – |
| 3980 nM | 23.4 nM | 22.9 nM | CC(C)(C)CC(C)(C)NC(=O)NC1CCN(CC2CC3c4ccccc4Cc4ccc(F)cc4C3O2)CC1 (stereo not drawn) [Compound 245] | – | – | – |
| 3550 nM | 3.31 nM | 2.69 nM | O=C(Nc1ccccc1)NC1CCN(CC2CC3c4ccccc4Cc4ccc(F)cc4C3O2)CC1 (stereo not drawn) [Compound 247] | – | – | – |
| 3800 nM | 2.09 nM | 6.17 nM | N#Cc1ccc(NC(=O)NC2CCN(CC3CC4c5ccccc5Cc5ccc(F)cc5C4O3)CC2)cc1 (stereo not drawn) [Compound 248] | – | – | – |
| 3890 nM | 37.2 nM | 20.4 nM | O=C(Nc1ccccc1Oc1ccccc1)NC1CCN(CC2CC3c4ccccc4Cc4ccc(F)cc4C3O2)CC1 (stereo not drawn) [Compound 250] | – | – | – |
| 3630 nM | 10.7 nM | 8.51 nM | CS(=O)(=O)CCCCNC(=S)NC1CCN(CC2CC3c4ccccc4Cc4ccc(F)cc4C3O2)CC1 (stereo not drawn) [Compound 251] | – | – | – |
| 3240 nM | 11.5 nM | 6.61 nM | COCCNC(=S)NC1CCN(CC2CC3c4ccccc4Cc4ccc(F)cc4C3O2)CC1 (stereo not drawn) [Compound 252] | – | – | – |
| 3470 nM | 12.3 nM | 20 nM | Fc1ccc2c(c1)C1OC(CN3CCC(NC(=S)Nc4cccnc4)CC3)CC1c1ccccc1C2 (stereo not drawn) [Compound 254] | – | – | – |
| 5620 nM | 20.4 nM | 20.4 nM | COc1cc(NC(=S)NC2CCN(CC3CC4c5ccccc5Cc5ccc(F)cc5C4O3)CC2)cc(OC)c1OC (stereo not drawn) [Compound 255] | – | – | – |
| 6460 nM | 44.7 nM | 44.7 nM | NCCNC(=S)NC1CCN(CC2CC3c4ccccc4Cc4ccc(F)cc4C3O2)CC1 (stereo not drawn) [Compound 256] | – | – | – |
| > 10000 nM | 16.2 nM | 0.912 nM | OCC1CC2CN(C[C@H]3C[C@@H]4c5ccccc5Cc5ccc(F)cc5[C@@H]4O3)CCC2O1 (stereo partly drawn) [Compound 274, [2R-(2α, 3aα, 12bβ)]-(2′RS,3a′RS, 7a′RS)[5-(11-fluoro-3,3a,8,12b-tetrahydro-2H-1-oxa-dibenzo[e,h]azulen-2-ylmethyl)-octahydro-furo[3,2-c]pyridin-2-yl]-methanol.oxalate (1:1)] | – | – | – |

Source: patent US8569267B2, “Tetracyclic tetrahydrofuran derivatives containing cyclic amine side chain” (Janssen Pharmaceutica, NV, priority 2005, dated 2013)
